The conditions of data set [1]: 37° C., pH 7.4 buffer, HPLC.
Description: The system was connected to a Dell computer running Empire software. Samples were filtered using 0.22 μm poly(vinylidine fluoride) syringe filters (Fisher). […] Mobile phase used was composed of 50 mM KH2PO4, 2.5 mM sodium dodecyl sulfate, 25% acetonitrile, 75% water at pH 3.
In vitro degradation studies. Diacid 3 (5.0 mg, triplicate) was placed into scintillation vials and 20.00 mL phosphate buffered saline (PBS) pH 7.4 added. Samples were incubated at 37° C. under constant shaking (60 rpm) in an Excella E25 Incubator Shaker (New Brunswick Scientific). PBS (1.00 mL) was removed at predetermined time points (2 h, 5 h, 10 h, and daily starting on day 1) and replaced with fresh PBS (1.00 mL). The pH was checked using an Accumet® Research AR15 pH meter (Fisher Scientific) and adjusted using 0.50 M NaOH when needed. Samples were immediately analyzed by HPLC using the conditions outlined above.
Samples were incubated at 37° C. under constant shaking (60 rpm) in an Excella E25 Incubator Shaker (New Brunswick Scientific). PBS (20.00 mL) was removed daily and replaced with fresh PBS. Samples were analyzed by HPLC.
The test system of data set [2] is 3T3 fibroblasts cells (NIH 3T3 fibroblast cell line).
Description: Cytocompatibility was evaluated by culturing 3T3 fibroblasts cells (NIH 3T3 fibroblast cell line) in diacid- and/or polymer-containing medium at concentrations of 0.10 and 0.01 mg/mL Cell culture medium consisted of Dulbecco's modified Eagle's medium (DMEM), 10 vol. % fetal bovine serum (Atlanta Biologicals, Lawrenceville, Ga.), 1% 1-glutamate, and 1% penicillin/streptomycin. Fibroblasts were seeded at a density of 2,000 cells/well in 96 well plates containing 150 μL of culture medium. The positive control consisted of fibroblasts with cell culture media only and the negative control consisted of fibroblasts with cell culture media and 5% 200-proof ethanol (PHARMCO-AAPER). […] Cell viability was determined by using Calcein AM and ethidium homodimer-1 staining (Molecular Probes) according to the manufacturer's protocol and the results normalized to the positive control. […] Experiments were performed in quadruplicates.

Experimental findings from US20140030341A1, “POLYMERS AND METHODS FOR THE TREATMENT OF PAIN” (RUTGERS, THE STATE UNIVERSITY OF NEW JERSEY, priority 2011, published 2014) are described below.

For the compound `CN1CC[C@]23c4c5ccc(OC(=O)CCCC(=O)O)c4O[C@H]2[C@@H](OC(=O)CCCC(=O)O)C=C[C@H]3[C@H]1C5` [Diacid 3], the hydrolytic degradation pathway entry in data set [1] is reported as “hydrolyzes into a monoacid”. In data set [2] (0.10 mg/mL, 95% confidence level), the “cell viability vs positive control (FIG. 7A)” value is listed as “no statistical differences”. The cytotoxicity towards fibroblasts result in data set [2] (0.10 and 0.01 mg/mL) is “non-cytotoxic”. In addition, in data set [2] (0.10 and 0.01 mg/mL, 24, 48 and 72 h, 95% confidence level), the “cell viability vs positive control (statistical analysis)” value is “no significant differences”.
